This is an account of results in US20260077191A1, “COMBINATION THERAPY FOR THE TREATMENT OF DEPRESSION” (Flow Neuroscience, Inc., priority 2022, published 2026).

Assay [1] relates to serotonin reuptake and norepinephrine reuptake. The settings on record: cited from earlier work; for selectivity for serotonin reuptake inhibition than norepinephrine reuptake inhibition: higher selectivity for serotonin reuptake.
Assay [2] has as its system Major depressive disorder (MDD). Put plainly: weekly MADRS-s self-assessment of MDD subjects on a pharmacologic antidepressant agent combined with tDCS sessions (Example 2). Type of assay: in vivo, human. Conditions: each agent combined with tDCS; Week 6; change in MADRS-s, FIG. 7. The source says: In this example, a subject completed a MADRS-s questionnaire at baseline (defined as a time preceding initiation of neurostimulation) to determine a starting measurement to be used in an assessment of treatment efficacy. Ideally, baseline measures were made close to the period of time in which the first neurostimulation session began. The subject completed the same MADRS-s questionnaire weekly during a period of ongoing treatment comprising administering of a prescribed pharmacologic antidepressant agent and delivery to the subject of plurality tDCS sessions. […]
Subjects were provided with a tDCS neurostimulation device, instructions of use, and an program capable of being run on a handheld electronic device which provided instructions, recorded responses to various questionnaires completed by the subject, and recorded information regarding the tDCS stimulation sessions completed by the user. Amongst the tDCS stimulation session information recorded was the date of each session completed, the time of day of each completed session, the duration of each completed session, the intensity of electrical stimulation in each session, the latency from the most recently completed session to the previous session.
Subjects completed a MADSR-s assessment at baseline prior to their first tDCS session. […] If the dosage had changed, the subject recorded the extent of the change. […]

On to `CCN(CC)C(=O)[C@@]1(c2ccccc2)C[C@H]1CN` [Levomilnacipran], for which the “potency for norepinephrine reuptake inhibition than serotonin reuptake inhibition” value in assay [1] is 2 fold.

For `CCN(CC)C(=O)C1(c2ccccc2)CC1CN` (stereo not drawn) [Milnacipran], the “potency for norepinephrine reuptake inhibition than serotonin reuptake inhibition” value in assay [1] is given as 3 fold.

`CN[C@H]1CC[C@@H](c2ccc(Cl)c(Cl)c2)c2ccccc21` [Sertraline]: the “effectiveness in improving symptoms of depression compared to fluoxetine” value in assay [2] is “significantly better”.

In the case of `COc1ccc(C(CN(C)C)C2(O)CCCCC2)cc1` (stereo not drawn) [Venlafaxine], in assay [2], the “effectiveness in improving symptoms of depression compared to fluoxetine” value is on record as “approaching significance”.

For the molecule `CN(C)CC(c1ccc(O)cc1)C1(O)CCCCC1` (stereo not drawn) [desvenlafaxine], in assay [1], the “selectivity for serotonin reuptake inhibition than norepinephrine reuptake inhibition” value is on record as 10 fold.

`CNCC[C@H](Oc1cccc2ccccc12)c1cccs1` [duloxetine]: the “selectivity for serotonin reuptake inhibition than norepinephrine reuptake inhibition” value in assay [1] is on record as 10 fold.
